The results in this text go back to ChEMBL document CHEMBL4813957, “Antitubercular properties of thiazolidin-4-ones - A review” (Eur J Med Chem, 2021).

The subject of series [1] is Mycobacterium tuberculosis. Description: Antimycobacterial activity against Mycobacterium tuberculosis H37Ra ATCC 25177 measured on 12th day by XTT reduction menadione assay. The class given is functional. The settings on record: H37Ra ATCC 25177, 288 h, time 12 day. On the technique in general: Formazan colour is commonly taken as a measure of viable cells.
The subject of series [2] is Mycobacterium tuberculosis. Description: Antimycobacterial activity against Mycobacterium tuberculosis H37Rv incubated for 7 days by microplate alamar blue assay. The class given is functional. As to conditions: 168 h, time 7 day.
The nature of series [3]: Inhibition of Mycobacterium tuberculosis Pantothenate Synthetase expressed in Escherichia coli BL21(DE3) cells using beta-alanine as substrate.
The subject of series [4] is Mycobacterium tuberculosis. Description: Antimycobacterial activity against Mycobacterium tuberculosis by microplate alamar blue assay. It counts as functional. A general note: The colour change of resazurin is a common sign of viable cells or microbes.
Series [5] can be described thus: Cytotoxicity against African green monkey Vero cells after 72 hrs by cell titer glo luminescent cell viability assay. As to conditions: chlorocebus sabaeus. The class given is cell-based.
Series [6] relates to Mycobacterium tuberculosis. Description: Antimycobacterial activity against Mycobacterium tuberculosis H37Rv 27294 by microplate alamar blue assay. It counts as functional.
Series [7] deals with Mycobacterium tuberculosis. Description: Antimycobacterial activity against Mycobacterium tuberculosis H37Rv by Lowenstein-Jensen method. The class given is functional.
The test system of series [8] is Mycobacterium tuberculosis. Description: Antimycobacterial activity against Mycobacterium tuberculosis H37Rv assessed as mycobacterial growth inhibition at 12.5 ug/ml relative to control. The class given is functional. As to conditions: read-out: GI.
In series [9] the test system is Mycobacterium tuberculosis. As to the kind of experiment: Antimycobacterial activity against Mycobacterium tuberculosis H37Rv assessed as growth inhibition at 50 ug/ml by Lowenstein-Jensen method relative to control. It counts as functional. As to conditions: read-out: GI.
The test system of series [10] is Mycobacterium tuberculosis. As to the kind of experiment: Antimycobacterial activity against Mycobacterium tuberculosis. It counts as functional.
For series [11], the system named is Mycobacterium tuberculosis. Description: Antimycobacterial activity against Mycobacterium tuberculosis H37Ra ATCC 25177 assessed as inhibition of bacteria at 30 ug/ml by XTT reduction menadione assay relative to control. The class given is functional.
For series [12], the system named is Mycobacterium tuberculosis. As to the kind of experiment: Antimycobacterial activity against Mycobacterium tuberculosis H37Rv assessed as bacterial growth inhibition at 6.25 ug/ml by BACTEC MGIT method relative to control. It counts as functional.
In series [13] the test system is Mycobacterium tuberculosis. Description: Antimycobacterial activity against Mycobacterium tuberculosis H37Rv assessed as inhibition of bacteria at 12.5 ug/ml by microplate alamar blue assay relative to control. It counts as functional.
Series [14] relates to Mycobacterium tuberculosis. As to the kind of experiment: Antimycobacterial activity against Mycobacterium tuberculosis H37Rv assessed as bacterial inhibition at 25 ug/ml by microplate alamar blue assay relative to control. The class given is functional.
Series [15] deals with Mycobacterium tuberculosis. Description: Antimycobacterial activity against Mycobacterium tuberculosis H37Ra ATCC 25177 measured on 8th to 12th day by XTT reduction menadione assay. It counts as functional. The settings on record: time 8-12 day.
The subject of series [16] is Mycobacterium tuberculosis. Description: Antimycobacterial activity against Mycobacterium tuberculosis H37Rv measured after 12 to 28 days by Lowenstein-Jensen method. It counts as functional. As to conditions: time 12-28 day.
Series [17] relates to Mycobacterium tuberculosis. As to the kind of experiment: Antimycobacterial activity against Mycobacterium tuberculosis H37Rv assessed as growth inhibition at 12.5 ug/ml by BACTEC radiometric method relative to control. The class given is functional. The settings on record: read-out: GI.
The test system of series [18] is Mycobacterium tuberculosis. As to the kind of experiment: Antimycobacterial activity against Mycobacterium tuberculosis H37Rv incubated for 7 days by resazurin dye based assay. The class given is functional. The settings on record: 168 h, time 7 day.
Series [19] concerns Mycobacterium tuberculosis. As to the kind of experiment: Antimycobacterial activity against Mycobacterium tuberculosis H37Rv assessed as growth inhibition at 16 ug/ml measured after 12 to 28 days by Lowenstein-Jensen agar method relative to control. The class given is functional. The settings on record: time 12-28 day, read-out: GI.
The test system of series [20] is Mycobacterium tuberculosis. As to the kind of experiment: Antimycobacterial activity against Mycobacterium tuberculosis H37Rv assessed as growth inhibition at 6.25 ug/ml by BACTEC radiometric method relative to control. The class given is functional. As to conditions: read-out: GI.
Series [21] concerns Mycobacterium tuberculosis. Description: Antimycobacterial activity against Mycobacterium tuberculosis H37Rv incubated for 45 days by Lowenstein-Jensen method. It counts as functional. The settings on record: 1080 h, time 45 day.
Series [22] deals with Mycobacterium tuberculosis. Description: Antimycobacterial activity against Mycobacterium tuberculosis H37Rv by filter paper disc diffusion method. It counts as functional. (In general: In agar diffusion tests the substance spreads into inoculated agar from a disc or well.)
The test system of series [23] is Mycobacterium tuberculosis. As to the kind of experiment: Antimycobacterial activity against Mycobacterium tuberculosis H37Rv ATCC27294 measured after 28 days by two-fold serial dilution method. It counts as functional. The settings on record: H37Rv ATCC 27294, 672 h, time 28 day.
In series [24] the test system is Mycobacterium tuberculosis. Description: Antimycobacterial activity against Mycobacterium tuberculosis H37Rv ATCC 27294 incubated for 5 days by microplate alamar blue assay. The class given is functional. The settings on record: H37Rv ATCC 27294, 120 h, time 5 day.
Series [25] relates to Mycobacterium tuberculosis. As to the kind of experiment: Antimycobacterial activity against Mycobacterium tuberculosis ATCC 27286 assessed as zone of inhibition at 20 ug/ml. As to conditions: read-out: IZ. It counts as functional.
The subject of series [26] is Mycolicibacterium smegmatis. Description: Antimycobacterial activity against Mycobacterium smegmatis ATCC 35797 incubated for 48 hrs by agar dilution method. The class given is functional.
In series [27] the test system is Mycobacterium tuberculosis. As to the kind of experiment: Antimycobacterial activity against Mycobacterium tuberculosis H37Rv ATCC27294 incubated for 7 days by microplate alamar blue assay. It counts as functional. As to conditions: H37Rv ATCC 27294, 168 h, time 7 day.

Each structure is given as a SMILES string. ≈ marks a conversion by molar mass, not a printed value. Structures can show the parent of a compound that is named as a salt.

The term MIC denotes the smallest concentration in the dilution series that meets the test's criterion for growth inhibition. On to `O=C1CSC(c2ccc(OCc3cc4ccccc4n4nnnc34)cc2)N1c1ccc([N+](=O)[O-])cc1` (configuration not stated), for which, in series [1], the lowest concentration to inhibit growth (MIC) was 20.3 µg/mL (≈ 40.8 µM).
The IC50 is the concentration needed to halve the response being measured. Turning to `COc1cc(/C=C2\SC(=S)N(CCC(=O)NNC(=O)c3ccncc3)C2=O)cc(OC)c1OC`, inhibition of growth in series [2] (MIC) required 1.55 µM. In addition, the midpoint of inhibition in [3], the IC50, lay at 0.35 µM.
Compound `O=C(NN1C(=O)CSC1c1ccccc1O)c1coc2ccc3ccccc3c12` (configuration not stated) gave an MIC in series [4] of 50 µg/mL (≈ 124 µM).
As usually defined, the CC50 is the concentration giving 50% cytotoxicity. In general, IC90 refers to the concentration needed for an effect of 90%. Consider `CN1C(=O)/C(=C/c2ccccc2F)S/C1=N/NC(=O)c1ccncc1`, for which the CC50 at 72 h in series [5] was 15.5 µg/mL (≈ 43.6 µM). In series [6], this compound came in with an IC90 of 2.95 µg/mL (≈ 8.28 µM).
In turn, `O=C(NN1C(=O)CSC1c1ccc(O)cc1)c1coc2ccc3ccccc3c12` (configuration not stated) had an MIC in series [4] of 50 µg/mL (≈ 124 µM).
As to `COc1cc(C2SCC(=O)N2NC2=Nc3ccccc3Sc3ccccc32)cc(OC)c1OC` (configuration not stated), in [7], the lowest concentration to inhibit growth (MIC) was 125 µg/mL (≈ 253 µM).
In the case of `CC1SC(c2ccc(O)cc2)N(Nc2nc(-c3ccccc3)c(C#N)c(=O)n2C)C1=O` (configuration not stated), the inhibition of growth at 12.5 µg/mL in series [8] was determined as 44%.
As for `O=C(CCN1C(=O)/C(=C/c2ccc([N+](=O)[O-])cc2)SC1=S)NNC(=O)c1ccccc1`, the lowest concentration to inhibit growth in [2] (MIC) was 1.71 µM. Also, the IC50 in series [3] was determined as 0.37 µM.
Take `O=C(NCCCN1c2ccccc2Sc2ccccc21)N1C(=O)/C(=C/c2cccc([N+](=O)[O-])c2)SC1c1cccc([N+](=O)[O-])c1` (configuration not stated): in series [9], the inhibition of growth at 50 µg/mL was found to be 83%.
`Cc1nc(/N=C2\C(=O)Nc3ccccc32)sc1C(=O)NN1C(=O)CSC1c1ccc(Cl)cc1` (configuration not stated) displayed an MIC in [10] of 0.78 µM (≈ 0.388 µg/mL).
A word on the inhibition: it is the share of the control response that was lost under treatment. As to `Cc1nc(-c2cnccn2)sc1C(=O)NN1C(=O)CSC1c1ccccc1` (configuration not stated), the inhibition at 30 µg/mL in [11] is 71%.
On to `Cc1ccc(/C=C2\SC(NCCn3c(C)nc4ccccc4c3=O)=NC2=O)cc1`, for which the inhibition at 6.25 µg/mL in series [12] worked out at 99%.
On to `CCCCCCCCCCCCN1C(=O)C(CC(=O)O)SC12CCN(C(=O)C(N)Cc1ccccc1)CC2` (configuration not stated), for which the inhibition at 12.5 µg/mL in [13] was determined as 94%. Further, the inhibition at 25 µg/mL in series [14] amounted to 97%.
`Cc1cc(NS(=O)(=O)c2ccc(N3C(=O)CSC3c3ccc(C(F)(F)F)cc3)cc2)no1` (configuration not stated) returned an IC90 in series [15] of 0.43 µg/mL (≈ 0.889 µM).
Compound `CCc1ccc(CCOc2ccc(/C=C3\SC(=S)N(CC(=O)Nc4nc5ccc(C)cc5s4)C3=O)cc2)nc1` had an MIC in [16] of 25 µg/mL (≈ 43.5 µM).
Turning to `Cc1ccc(N2C(=O)CSC23C(=O)N(CN2CCOCC2)c2ccc(C)cc23)cc1` (configuration not stated), the inhibition of growth at 12.5 µg/mL in series [17] amounted to 90%.
`Cc1cc(NS(=O)(=O)c2ccc(N3C(=O)CSC3c3c(Cl)cccc3Cl)cc2)no1` (configuration not stated): in series [15], the IC90 was 0.43 µg/mL (≈ 0.888 µM).
With `Cc1nc(/N=C2\C(=O)Nc3ccccc32)sc1C(=O)NN1C(=O)CSC1c1ccccc1F` (configuration not stated), it took 0.78 µM (≈ 0.376 µg/mL) to inhibit growth in series [10] (MIC).
`O=C1C(CN2CCOCC2)SC(c2ccc(Cl)cc2)N1c1ccc(Cl)cc1` (configuration not stated) displayed an MIC in [18] of 25 µg/mL (≈ 59.1 µM).
In the case of `COc1ccc(C(CNC(=O)CNN2C(=O)CSC2c2ccc(O)c(OC)c2)C2(O)CCCCC2)cc1` (configuration not stated), in series [19], the inhibition of growth at 16 µg/mL was 99%.
In the case of `O=C(NN1C(=O)CSC1c1ccc([N+](=O)[O-])cc1)c1coc2ccc3ccccc3c12` (configuration not stated), it took 50 µg/mL (≈ 115 µM) to inhibit growth in series [4] (MIC).
`COc1ccc(C(=O)Nc2ccc(C(=O)NN3C(=O)CSC3c3ccc([N+](=O)[O-])o3)cc2)cc1` (configuration not stated): in [20], the inhibition of growth at 6.25 µg/mL stood at 98%.
As to `Cc1nc2ccccc2c(=O)n1CCNC1=NC(=O)/C(=C/c2ccc([N+](=O)[O-])cc2)S1`, in series [12], the inhibition at 6.25 µg/mL came to 99%.
In [15], `Cc1cc(NS(=O)(=O)c2ccc(N3C(=O)CSC3c3ccc(F)cc3)cc2)no1` (configuration not stated) showed an IC90 of 0.43 µg/mL (≈ 0.992 µM).
On to `CC[C@@H](CO)NCCN[C@@H](CC)CO` [ETHAMBUTOL HYDROCHLORIDE], for which the MIC in series [21] stood at 1.45 µM.
Regarding `NNC(=O)c1ccncc1` [ISONIAZID], the MIC in series [21] was found to be 0.64 µM (≈ 0.0878 µg/mL); in series [2], 1.6 µg/mL; in series [22] it was 1.25 µg/mL (≈ 9.11 µM); in series [23], 0.72 µM (≈ 0.0987 µg/mL); in series [24], 0.2 µg/mL (≈ 1.46 µM); in series [26], 12.5 µg/mL (≈ 91.1 µM). Besides, the MIC in [27] came out at 0.56 µg/mL (≈ 4.08 µM). The zone of inhibition at 20 µg/mL in [25] is 31 mm.
